{"source": "patent US12448461B2", "about": "“ABCB5 ligands and substrates” (Children's Medical Center Corporation, priority 2018, dated 2025)", "key": {"ABCB5 [1]": {"test_system": "ABCB5", "test": "Surface plasmon resonance (SPR) binding and antibody competition on PIP1, PIP2 and PIP3 surfaces"}, "[2]": {"biological_target": "T1, purified recombinant human ABCB5 (Homo sapiens, UniProt Q2M3G0)", "T1 sequence (Q2M3G0 1-812 isoform Q2M3G0-1)": "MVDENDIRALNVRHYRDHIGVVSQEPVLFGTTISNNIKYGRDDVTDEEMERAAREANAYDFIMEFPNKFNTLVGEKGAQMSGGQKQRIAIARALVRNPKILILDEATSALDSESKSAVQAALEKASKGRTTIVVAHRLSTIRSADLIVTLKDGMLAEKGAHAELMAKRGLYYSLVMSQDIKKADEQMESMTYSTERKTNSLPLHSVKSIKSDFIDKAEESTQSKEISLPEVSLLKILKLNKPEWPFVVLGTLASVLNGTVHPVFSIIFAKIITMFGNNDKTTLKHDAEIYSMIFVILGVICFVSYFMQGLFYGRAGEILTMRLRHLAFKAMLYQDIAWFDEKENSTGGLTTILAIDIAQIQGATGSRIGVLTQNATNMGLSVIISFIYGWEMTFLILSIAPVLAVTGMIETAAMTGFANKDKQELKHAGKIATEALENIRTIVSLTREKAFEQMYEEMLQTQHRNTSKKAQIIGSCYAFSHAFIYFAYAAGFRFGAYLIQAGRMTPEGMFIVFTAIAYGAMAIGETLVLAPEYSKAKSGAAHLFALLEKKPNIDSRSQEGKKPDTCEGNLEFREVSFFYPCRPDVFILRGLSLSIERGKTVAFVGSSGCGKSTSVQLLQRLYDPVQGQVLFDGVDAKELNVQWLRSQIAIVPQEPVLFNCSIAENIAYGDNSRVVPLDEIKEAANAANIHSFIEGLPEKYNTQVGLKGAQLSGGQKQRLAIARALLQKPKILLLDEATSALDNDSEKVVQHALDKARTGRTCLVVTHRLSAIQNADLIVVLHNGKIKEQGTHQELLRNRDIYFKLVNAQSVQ", "test": "Competition ELISA: PIP1, PIP2 or PIP3 binding to ABCB5 with increasing doses of competitor", "protocol": "ELISA plates coated with PIP1, PIP2 or PIP3 were incubated with purified recombinant human ABCB5 (P-glycoprotein ABCB5 [Homo sapiens] GenBank: AAO73470.1) for binding, in the absence or presence of increasing doses of PtdIns-(1,2-dioctanoyl), a synthetic analog of natural phosphatidylinositol (PtdIns) containing C8:0 fatty acids at the sn-1 and sn-2 positions (CAS Registry Number 899827-36-2)."}, "[3]": {"test_system": "Tyr::CreER; BrafCA; Ptenlox/lox genetic mouse melanoma model", "test": "Vemurafenib treatment in 4-HT inducible genetic mouse melanoma model on ABCB5 WT or KO background", "assay_type": "in vivo", "conditions": "vemurafenib-treated ABCB5 WT mice"}, "murine Abcb5": {"biological_target": "T2, murine Abcb5 (Mus musculus, UniProt B5X0E4)", "T2 construct": "wildtype mouse Abcb5-expressing skin tissue; from tissue; host or cells: wild-type mouse skin tissue", "T2 sequence (B5X0E4 1-1255)": "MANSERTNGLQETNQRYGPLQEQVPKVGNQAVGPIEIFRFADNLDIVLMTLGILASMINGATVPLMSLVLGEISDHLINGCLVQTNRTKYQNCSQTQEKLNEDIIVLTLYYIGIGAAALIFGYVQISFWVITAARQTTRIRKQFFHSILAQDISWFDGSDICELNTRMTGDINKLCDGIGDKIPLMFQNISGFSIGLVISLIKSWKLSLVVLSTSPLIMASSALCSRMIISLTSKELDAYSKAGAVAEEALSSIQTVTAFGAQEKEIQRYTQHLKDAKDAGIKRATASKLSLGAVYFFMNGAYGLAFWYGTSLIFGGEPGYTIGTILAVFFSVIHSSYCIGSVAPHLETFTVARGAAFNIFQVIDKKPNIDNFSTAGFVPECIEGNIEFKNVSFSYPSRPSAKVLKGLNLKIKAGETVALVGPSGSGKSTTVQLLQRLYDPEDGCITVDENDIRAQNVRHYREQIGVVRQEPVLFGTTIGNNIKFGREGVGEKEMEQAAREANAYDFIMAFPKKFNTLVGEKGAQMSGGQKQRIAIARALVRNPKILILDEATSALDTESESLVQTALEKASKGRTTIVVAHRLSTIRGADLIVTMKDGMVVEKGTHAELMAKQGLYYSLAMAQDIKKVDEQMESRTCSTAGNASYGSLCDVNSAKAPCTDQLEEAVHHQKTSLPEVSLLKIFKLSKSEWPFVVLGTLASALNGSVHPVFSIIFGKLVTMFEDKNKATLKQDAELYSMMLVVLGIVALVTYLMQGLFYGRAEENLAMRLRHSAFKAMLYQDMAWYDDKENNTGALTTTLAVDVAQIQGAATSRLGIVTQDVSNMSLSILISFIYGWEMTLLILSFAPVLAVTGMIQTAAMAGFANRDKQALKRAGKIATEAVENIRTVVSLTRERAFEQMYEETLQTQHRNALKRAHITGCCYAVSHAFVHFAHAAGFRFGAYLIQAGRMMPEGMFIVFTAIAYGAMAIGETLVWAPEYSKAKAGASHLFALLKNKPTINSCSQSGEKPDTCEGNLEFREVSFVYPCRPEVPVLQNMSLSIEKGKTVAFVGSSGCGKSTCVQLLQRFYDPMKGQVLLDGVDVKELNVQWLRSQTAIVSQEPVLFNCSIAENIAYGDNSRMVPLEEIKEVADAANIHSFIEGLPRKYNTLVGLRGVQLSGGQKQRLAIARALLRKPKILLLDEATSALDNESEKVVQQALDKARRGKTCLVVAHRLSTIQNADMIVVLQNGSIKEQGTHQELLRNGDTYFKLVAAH", "test": "ELISA: plates coated with PIP1, PIP2 or PIP3 incubated with wildtype mouse Abcb5-expressing skin tissue", "assay_type": "binding", "conditions": "absent in Abcb5 knockout tissue", "protocol": "(§1) ELISA plates coated with PIP1, PIP2 or PIP3 were incubated with either purified recombinant human ABCB5 isoform 2 (812 aa, NCBI Reference Sequence: NP_848654.3), wildtype mouse Abcb5-expressing skin tissue, or Abcb5 non-expressing skin tissue derived from ABCB5 knockout mice (as a specificity control), followed by bound ABCB5 detection using a murine ABCB5-specific monoclonal antibody (Ksander et al Nature 2014). […] Similar results were obtained using the murine ABCB5 mAb clone 3C2-1D12 (Frank NY et al. J Biol Chem. 2003) as a detection antibody."}, "ABCB5 [4]": {"biological_target": "T3, ABCB5 (Homo sapiens, UniProt Q2M3G0)", "T3 construct": "Immunoprecipitation from human ABCB5-expressing melanoma cells; endogenous in cells", "T3 sequence (Q2M3G0 1-1257)": "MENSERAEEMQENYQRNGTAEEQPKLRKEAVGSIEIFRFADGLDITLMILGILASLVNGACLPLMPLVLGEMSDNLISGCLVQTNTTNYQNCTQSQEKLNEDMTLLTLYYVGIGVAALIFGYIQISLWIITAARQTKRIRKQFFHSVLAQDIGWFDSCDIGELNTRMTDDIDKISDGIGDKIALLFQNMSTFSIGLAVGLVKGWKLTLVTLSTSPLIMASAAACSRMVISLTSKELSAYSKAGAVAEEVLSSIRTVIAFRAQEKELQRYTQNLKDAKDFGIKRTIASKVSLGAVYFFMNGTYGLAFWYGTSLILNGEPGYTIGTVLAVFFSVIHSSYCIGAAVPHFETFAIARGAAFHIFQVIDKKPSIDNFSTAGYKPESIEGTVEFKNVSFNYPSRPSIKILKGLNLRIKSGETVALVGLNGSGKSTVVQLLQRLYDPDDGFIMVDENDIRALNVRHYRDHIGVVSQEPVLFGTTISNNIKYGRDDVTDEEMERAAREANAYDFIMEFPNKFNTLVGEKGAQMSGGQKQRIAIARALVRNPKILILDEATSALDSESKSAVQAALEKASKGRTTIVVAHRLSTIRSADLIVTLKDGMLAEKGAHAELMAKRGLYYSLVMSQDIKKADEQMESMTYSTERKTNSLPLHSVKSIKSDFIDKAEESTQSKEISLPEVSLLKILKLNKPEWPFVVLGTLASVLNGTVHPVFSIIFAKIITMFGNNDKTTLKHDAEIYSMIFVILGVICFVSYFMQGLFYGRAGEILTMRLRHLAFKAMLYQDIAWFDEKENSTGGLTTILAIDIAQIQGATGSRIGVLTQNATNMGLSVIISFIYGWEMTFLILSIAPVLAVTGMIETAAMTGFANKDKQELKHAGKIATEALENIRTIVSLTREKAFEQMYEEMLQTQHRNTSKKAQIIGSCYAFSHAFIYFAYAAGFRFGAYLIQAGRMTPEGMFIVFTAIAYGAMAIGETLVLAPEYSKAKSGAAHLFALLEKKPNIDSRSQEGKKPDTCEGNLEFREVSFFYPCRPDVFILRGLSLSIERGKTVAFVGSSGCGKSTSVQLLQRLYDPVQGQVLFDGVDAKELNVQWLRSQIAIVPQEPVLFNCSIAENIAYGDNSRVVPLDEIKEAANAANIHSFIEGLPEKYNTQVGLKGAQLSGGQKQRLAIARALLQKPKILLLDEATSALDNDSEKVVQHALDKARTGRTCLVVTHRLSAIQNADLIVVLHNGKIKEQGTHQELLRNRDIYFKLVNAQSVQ", "test": "Immunoprecipitation with anti-PIP2 or anti-PIP3 antibody from ABCB5-expressing melanoma cells, ABCB5 immunoblot", "assay_type": "binding", "source_text": "PIP2 pulldown was confirmed using immunoblotting with PIP2 antibody in FIG. 1A (lower panel)."}, "[5]": {"biological_target": "T4, recombinant human ABCB5 isoform 2 (Homo sapiens, UniProt Q2M3G0)", "T4 sequence (Q2M3G0 446-1257)": "T1 sequence (Q2M3G0 1-812 isoform Q2M3G0-1)", "test": "ELISA: plates coated with PIP1, PIP2 or PIP3 incubated with recombinant human ABCB5 isoform 2", "assay_type": "binding", "protocol": "as §1"}}, "data": [{"molecule": "CCCCCCCC(=O)OC[C@H](COP(=O)(O)O[C@@H]1[C@H](O)[C@H](O)[C@@H](OP(=O)(O)O)[C@H](OP(=O)(O)O)[C@H]1O)OC(=O)CCCCCCC", "note": "[PI (4,5) P2, diC8]", "values": [{"measurement": "binding to ABCB5 by SPR", "setting": "ABCB5 [1]", "value": "shown to bind"}]}, {"molecule": "CCCCCCCC(=O)OCC(COP(=O)(O)OC1C(O)C(O)C(O)C(O)C1O)OC(=O)CCCCCCC", "note": "(stereo not drawn) [PtdIns-(1,2-dioctanoyl)]", "values": [{"measurement": "inhibition of binding of PIP1, PIP2 or PIP3 to ABCB5", "setting": "[2]; increasing doses", "value": "competitively inhibit"}, {"measurement": "concentration of apparent saturation of the inhibitory effect", "setting": "[2]; inhibition of PIP1, PIP2 or PIP3 binding to ABCB5", "value": 0.1, "unit": "mM"}]}, {"molecule": "CCCS(=O)(=O)Nc1ccc(F)c(C(=O)c2c[nH]c3ncc(-c4ccc(Cl)cc4)cc23)c1F", "note": "[vemurafenib]", "values": [{"measurement": "formation of vemurafenib-resistant tumors", "setting": "[3]", "value": 100, "unit": "%"}]}, {"molecule": "PIP3", "values": [{"measurement": "binding to murine Abcb5", "setting": "murine Abcb5", "value": "bound"}, {"measurement": "co-precipitation of ABCB5 on lipid pulldown", "setting": "ABCB5 [4]", "value": "co-precipitation of ABCB5 protein"}, {"measurement": "binding to ABCB5 by SPR", "setting": "ABCB5 [1]", "value": "binding"}, {"measurement": "relative efficiency of binding to ABCB5", "setting": "[5]; PIP2 and PIP3 compared with PIP1", "value": "more efficient"}, {"measurement": "binding to recombinant human ABCB5", "setting": "[5]; detection with ABCB5-specific monoclonal antibody", "value": "bound"}]}]}
